The results in this text go back to PubChem BioAssay (NCI).

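96-well plates; 48 h exposure; 5 concentrations. Endpoints by linear interpolation between flanking doses. Not reached: highest tested concentration assigned. The concentration for 50% growth inhibition is given as GI50. TGI: total growth inhibition.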

Some test systems named below: A549 NSCLC; DU-145 prostate; EKVX NSCLC; HCT-15 colon; HL-60(TB) leukemia; NCI-H522 lung; OVCAR-3 ovarian; OVCAR-5 ovarian; SK-MEL-28 melanoma; SW-620 colon.
Holding throughout (test): NCI anticancer screen, dose series, 48 h

On to `NC(Cc1ccc(O)cc1)C(=O)N/N=C/c1ccc(N(CCCl)CCCl)cc1` (stereo not given), for which the GI50 in the test with A549 NSCLC is 6.39 µM; in the test on DU-145 prostate, 5.19 µM; with EKVX NSCLC, 24.2 µM; with HCT-15 colon, 38.6 µM; with HL-60(TB) leukemia, 0.0757 µM; with NCI-H522 lung it was 25.1 µM. The GI50 was 14.2 µM in the test on OVCAR-3 ovarian, 27.4 µM in the test on OVCAR-5 ovarian, 58.7 µM with SK-MEL-28 melanoma and 16 µM in the test with SW-620 colon. Further, the TGI in the test on A549 NSCLC is > 100 µM; in the test with DU-145 prostate, 34.7 µM; with EKVX NSCLC, > 100 µM; in the test on HCT-15 colon, > 100 µM; in the test with HL-60(TB) leukemia it was 14.6 µM; with NCI-H522 lung it was > 100 µM. The TGI in the test on OVCAR-3 ovarian was 62 µM; in the test with OVCAR-5 ovarian it was > 100 µM; with SK-MEL-28 melanoma, > 100 µM; in the test with SW-620 colon, > 100 µM.
For `[CH3][Sn]([CH3])([CH3])[O]C(=O)C(O)c1ccccc1` (stereo not given), the GI50 was 4.72 µM in the test with A549 NSCLC; 6.18 µM in the test with DU-145 prostate; 5.36 µM in the test with EKVX NSCLC; 3.57 µM in the test on HCT-15 colon; 4.75 µM in the test with HL-60(TB) leukemia; 2.6 µM in the test on NCI-H522 lung. Also, the GI50 with OVCAR-3 ovarian was 5.38 µM; in the test with OVCAR-5 ovarian, 9.91 µM; in the test on SK-MEL-28 melanoma it was 8.55 µM; in the test on SW-620 colon it was 5.13 µM. Further, the TGI in the test with A549 NSCLC was 49.1 µM; in the test on DU-145 prostate it was > 100 µM; in the test with EKVX NSCLC, 55.7 µM; in the test with HCT-15 colon, 19.1 µM; in the test with HL-60(TB) leukemia it was > 40.5 µM; with NCI-H522 lung it was 13.1 µM. Further, the TGI with OVCAR-3 ovarian is 66.2 µM; in the test on OVCAR-5 ovarian it was 76.4 µM; in the test with SK-MEL-28 melanoma, > 100 µM; in the test on SW-620 colon, > 100 µM.
On to `O=c1c(-c2ccc3c(c2)OCO3)coc2c(CO)c(O)ccc12`, for which the GI50 was 6.8 µM in the test on A549 NSCLC; 2.41 µM in the test on DU-145 prostate; 2.79 µM with EKVX NSCLC; 2.35 µM in the test on HCT-15 colon; 2.25 µM in the test on HL-60(TB) leukemia; 4.55 µM in the test with NCI-H522 lung. Further, the GI50 is 2.07 µM with OVCAR-3 ovarian, 3.3 µM with OVCAR-5 ovarian, 5.91 µM with SK-MEL-28 melanoma and 4.06 µM with SW-620 colon. Besides, the TGI in the test with A549 NSCLC came to 30.9 µM; in the test on DU-145 prostate it was 7.06 µM; in the test on EKVX NSCLC, 8.81 µM; in the test with HCT-15 colon, 6.46 µM; in the test with HL-60(TB) leukemia it was 5.9 µM; in the test with NCI-H522 lung, 20.8 µM. For the same molecule, the TGI with OVCAR-3 ovarian amounted to 4.26 µM; in the test with OVCAR-5 ovarian, 10.5 µM; in the test with SK-MEL-28 melanoma it was 22.7 µM; in the test with SW-620 colon, 18.5 µM.
Consider `COc1ccc(Oc2nc(Nc3ccc(N4CCOCC4)cc3)ncc2NC(=O)Nc2cc(OC)cc(OC)c2)cc1`, for which the GI50 is 1.86 µM with A549 NSCLC; 1.66 µM in the test on DU-145 prostate; 7.56 µM in the test on EKVX NSCLC; 15.4 µM with HCT-15 colon; 10.8 µM in the test on HL-60(TB) leukemia; 3.94 µM in the test with NCI-H522 lung. In addition, the GI50 with OVCAR-3 ovarian is 1.41 µM; in the test with OVCAR-5 ovarian, 11.6 µM; in the test on SK-MEL-28 melanoma, 2.5 µM; in the test with SW-620 colon, 3.17 µM. Moreover, the TGI with A549 NSCLC is 12.5 µM; in the test on DU-145 prostate, 7.59 µM; in the test on EKVX NSCLC it was > 33.3 µM; with HCT-15 colon, > 33.3 µM; with HL-60(TB) leukemia, > 33.3 µM; in the test on NCI-H522 lung, 21.7 µM. Also, the TGI with OVCAR-3 ovarian is 5.46 µM; with OVCAR-5 ovarian, > 33.3 µM; in the test with SK-MEL-28 melanoma, 9.73 µM; with SW-620 colon, > 33.3 µM.
In the case of `NS(=O)(=O)c1cccc(-c2cc3ccncc3cc2OCc2ccccc2)c1`, the GI50 in the test with A549 NSCLC was 10.3 µM; in the test with DU-145 prostate, 17.1 µM; in the test with EKVX NSCLC it was 9.67 µM; in the test on HCT-15 colon it was 7.67 µM; in the test on HL-60(TB) leukemia, 4.64 µM; in the test with NCI-H522 lung it was 13.5 µM. Also, the GI50 in the test on OVCAR-3 ovarian was 10.9 µM; with OVCAR-5 ovarian, 14.8 µM; in the test with SK-MEL-28 melanoma it was 5.85 µM; with SW-620 colon it was 9.92 µM. In addition, the TGI in the test with A549 NSCLC is > 25 µM; in the test on DU-145 prostate, > 25 µM; with EKVX NSCLC it was > 25 µM; in the test with HCT-15 colon it was > 25 µM; in the test with HL-60(TB) leukemia it was 13.5 µM; with NCI-H522 lung, > 25 µM. Also, the TGI in the test with OVCAR-3 ovarian, in the test with OVCAR-5 ovarian, with SK-MEL-28 melanoma and in the test on SW-620 colon was > 25 µM in each case.
In the case of `Nc1ncnc2c1nc(N)n2C1OC(CO)C(O)C1O` (stereo not given), the GI50 was 0.331 µM in the test with A549 NSCLC; 0.401 µM with DU-145 prostate; 0.231 µM in the test on EKVX NSCLC; 0.433 µM in the test on HCT-15 colon; 0.376 µM in the test with HL-60(TB) leukemia; 0.809 µM with NCI-H522 lung. For the same molecule, the GI50 is 0.892 µM in the test with OVCAR-3 ovarian, 0.221 µM in the test on OVCAR-5 ovarian, 0.267 µM with SK-MEL-28 melanoma and 0.182 µM in the test with SW-620 colon. Moreover, the TGI is 2.02 µM in the test on A549 NSCLC; 2.09 µM in the test on DU-145 prostate; 1.27 µM in the test on EKVX NSCLC; 10.7 µM with HCT-15 colon; 3.67 µM in the test on HL-60(TB) leukemia; 2.61 µM in the test with NCI-H522 lung. Also, the TGI with OVCAR-3 ovarian stood at 4.75 µM; with OVCAR-5 ovarian, 15.4 µM; in the test with SK-MEL-28 melanoma it was 1.33 µM; in the test on SW-620 colon, 1.31 µM.
